This is an account of results in patent US10457707B2, “Substituted urea depsipeptide analogs as activators of the CLPP endopeptidase” (priority 2015, dated 2019).

≈ marks a conversion by molar mass, not a printed value.

What all share (assay type): cell-based
The test system of one series is E. coli K12ΔtolC. In words: Minimal inhibitory concentration assay (microbroth dilution). In general terms: Broth dilution looks for growth in wells or tubes with falling amounts of substance.
Series [1] has as its system Streptococcus pyogenes, ATCC 700294. The description is as above. To be noted: Streptococcus pyogenes, ATCC700294, read-out: Minimal Inhibitory Concentrations S. pyogenes ATCC 700294. A digest of the protocol: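 Plates with two-fold compound dilution series in broth were incubated overnight, aerobically, at 37° C, following CLSI microdilution guidance.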
Series [2] concerns Vero (kidney epithelial cells; ATCC CCL-81). In words: Cytotoxicity assay (CellTiter-Glo cell viability, 72 hours). To be noted: Vero cells, 72 hours, growth inhibition; read-out: Cytotoxicity IC50. Put shortly: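 Viability measured by CellTiter-Glo luminescence after 72-hour compound exposure (serial dilutions, DMSO control) of Vero monolayers seeded at 5000 cells/well in 10% FBS DMEM. IC50 values are the range of two biologically independent experiments, each run in duplicate.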
A general note: Cellular ATP, detected with luciferase, serves as a proxy for viable cell number.

Series [3] concerns Bacillus subtilis, ATCC 23857. Nature of the series: Minimal inhibitory concentration assay (microbroth dilution). To be noted: Bacillus subtilis, ATCC23857, read-out: Minimal Inhibitory Concentrations B. subtilis ATCC 23857. A digest of the protocol:
(§1)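 Compound is serially diluted two-fold in the appropriate broth, and bacterial inoculum at about 10^5 cfu/mL is added so the highest final concentration is 200 μM. Plates stay overnight at 37 °C under aerobic conditions before growth is scored by eye.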

For series [4], the system named is Enterococcus faecalis, ATCC 33186. The description is as above. Particulars: Enterococcus faecalis, ATCC33186, read-out: Minimal Inhibitory Concentrations E. faecalis ATCC 33186. Put shortly:
as §1

For series [5], the system named is Staphylococcus aureus, NRS70. The series is described as above. Particulars: Staphylococcus aureus, NRS70, read-out: Minimal Inhibitory Concentrations S. aureus NRS70. Put shortly: as §1
In series [6] the test system is Streptococcus pneumoniae, DAW27. The description is as above. Particulars: DAW27, read-out: Minimal Inhibitory Concentrations S. pneumoniae DAW27. Put shortly: as §1
Series [7] concerns Staphylococcus aureus, ATCC 29213. Described as above. Particulars: ATCC29213, read-out: Minimal Inhibitory Concentrations S. aureus ATCC 29213. A digest of the protocol: as §1

Regarding `C[C@@H]1C[C@H]2C(=O)OC[C@H](NC(=O)[C@H](Cc3ccccc3)NC(=O)Nc3ccc(Cl)cc3)C(=O)N3CCC[C@H]3C(=O)N3CCCC[C@H]3C(=O)N[C@@H](C)C(=O)N2C1` [Compound 3, (S)-2-(3-(4-chlorophenyl)ureido)-N-((2R,6S,8aS,14aS,20S,23aS)-2,6-dimethyl-5,8,14,19,23-pentaoxooctadecahydro-1H,5H,14H,19H-pyrido[2,1-i]dipyrrolo[2,1-c:2′,1′-l][1]oxa[4,7,10,13]tetraazacyclohexadecin-20-yl)-3-phenylpropanamide], in the series with E. coli K12ΔtolC, the “Minimal Inhibitory Concentrations E. coli K12ΔtolC” value was found to be 25 µM. The MIC in series [1] worked out at 0.39 µM (≈ 0.304 µg/mL); in series [3] it was 0.78 µM (≈ 0.607 µg/mL); in series [4], 0.2 µM (≈ 0.156 µg/mL); in series [5] it was 0.78 µM (≈ 0.607 µg/mL); in series [6] it was 0.2 µM (≈ 0.156 µg/mL); in series [7] it was 1.56 µM (≈ 1.21 µg/mL). Besides, the IC50 in series [2] is 63 ± 5.8 µM.
Take `C[C@@H]1C[C@H]2C(=O)OC[C@H](NC(=O)[C@H](Cc3ccccc3)NC(=O)Nc3ccc(N(C)C)cc3)C(=O)N3CCC[C@H]3C(=O)N3CCCC[C@H]3C(=O)N[C@@H](C)C(=O)N2C1` [Compound 5, (S)—N-((2R,6S,8aS,14aS,20S,23aS)-2,6-dimethyl-5,8,14,19,23-pentaoxooctadecahydro-1H,5H,14H,19H-pyrido[2,1-i]dipyrrolo[2,1-c:2′,1′-l][1]oxa[4,7,10,13]tetraazacyclohexadecin-20-yl)-2-(3-(4-(dimethylamino)phenyl)ureido)-3-phenylpropanamide]: the “Minimal Inhibitory Concentrations E. coli K12ΔtolC” value in the series with E. coli K12ΔtolC is 50 µM. The MIC in series [1] was 0.78 µM (≈ 0.614 µg/mL); in series [3], 0.78 µM (≈ 0.614 µg/mL); in series [4], 0.78 µM (≈ 0.614 µg/mL); in series [5], 1.56 µM (≈ 1.23 µg/mL); in series [6], 0.39 µM (≈ 0.307 µg/mL); in series [7], 6.25 µM (≈ 4.92 µg/mL). Besides, the IC50 in series [2] came to 91.3 ± 12.7 µM.
As for `COc1ccc(NC(=O)N[C@@H](Cc2ccccc2)C(=O)N[C@H]2COC(=O)[C@@H]3C[C@@H](C)CN3C(=O)[C@H](C)NC(=O)[C@@H]3CCCCN3C(=O)[C@@H]3CCCN3C2=O)cc1` [Compound 6, (S)—N-((2R,6S,8aS,14aS,20S,23aS)-2,6-dimethyl-5,8,14,19,23-pentaoxooctadecahydro-1H,5H,14H,19H-pyrido[2,1-i]dipyrrolo[2,1-c:2′,1′-l][1]oxa[4,7,10,13]tetraazacyclohexadecin-20-yl)-2-(3-(4-Methoxyphenyl)ureido)-3-phenylpropanamide], the “Minimal Inhibitory Concentrations E. coli K12ΔtolC” value in the series with E. coli K12ΔtolC amounted to 50 µM. In addition, the MIC in series [1] came out at 0.39 µM (≈ 0.302 µg/mL); in series [3], 1.56 µM (≈ 1.21 µg/mL); in series [4], 0.78 µM (≈ 0.604 µg/mL); in series [5] it was 3.13 µM (≈ 2.42 µg/mL); in series [6] it was 0.2 µM (≈ 0.155 µg/mL); in series [7], 3.13 µM (≈ 2.42 µg/mL). In addition, the IC50 in series [2] was above 100 µM.
On to `C[C@@H]1C[C@H]2C(=O)OC[C@H](NC(=O)[C@H](Cc3ccccc3)NC(=O)Nc3ccccc3Cl)C(=O)N3CCC[C@H]3C(=O)N3CCCC[C@H]3C(=O)N[C@@H](C)C(=O)N2C1` [Compound 7, (S)-2-(3-(2-chlorophenyl)ureido)-N-((2R,6S,8aS,14aS,20S,23aS)-2,6-dimethyl-5,8,14,19,23-pentaoxooctadecahydro-1H,5H,14H,19H-pyrido[2,1-i]dipyrrolo[2,1-c:2′,1′-l][1]oxa[4,7,10,13]tetraazacyclohexadecin-20-yl)-3-phenylpropanamide], for which the “Minimal Inhibitory Concentrations E. coli K12ΔtolC” value in the series with E. coli K12ΔtolC came out at 200 µM. Further, the MIC is 3.13 µM (≈ 2.44 µg/mL) in series [1]; 6.25 µM (≈ 4.86 µg/mL) in series [3]; 3.13 µM (≈ 2.44 µg/mL) in series [4]; 12.5 µM (≈ 9.73 µg/mL) in series [5]; 0.78 µM (≈ 0.607 µg/mL) in series [6]; 12.5 µM (≈ 9.73 µg/mL) in series [7]. In addition, the IC50 in series [2] is above 100 µM.

As a reminder, the IC50 is the midpoint of a concentration-inhibition curve.
